SMILES strings stand for the structures.

The assay has as its system Plasmodium falciparum. Put plainly: GSK_TCMDC: Inhibition of Plasmodium falciparum 3D7 in whole erythrocytes, using parasite LDH activity as an index of growth. To be noted: Plasmodium falciparum, 3D7. The format is functional, organism-based.
`CCOC(=O)CCCOc1cc(Cc2cnc(N)nc2N)cc(OC)c1OC` yielded an XC50 of 239 nM. Molecule `Fc1ccc2[nH]c(-c3cccc(-c4cccc(CN5CCN(c6cnccn6)CC5)c4)c3)nc2c1` gave an XC50 of 1060 nM. In the case of `Oc1ccc(Cl)c2c1C(c1ccccc1)=NCC2`, the XC50 came to 540 nM. For the molecule `COc1ccccc1CCCON1C(=N)N=C(N)NC1(C)C`, the XC50 worked out at 3.2 nM. For the molecule `COc1ccc2nccc(N3CCN(CCNCc4ccc5c(n4)NC(=O)CO5)CC3)c2c1`, the XC50 was found to be 1160 nM.

With `COc1ccc(O)c(C(=O)c2cc(C#N)c(=O)n(-c3ccc(Oc4ccccc4)cc3)c2)c1`, the XC50 was 737 nM. The molecule `CCN(C)c1cc(C(=O)N[C@@H](Cc2ccccc2)[C@H](O)CNC(C)(C)c2cccc(OC)c2)cc(N2CCCC2=O)c1` gave an XC50 of 73 nM.

Take `Cc1cccc2nc(-c3ccc(-c4ccc(CNCCNC(=O)c5ccnn5C)cc4)cc3)[nH]c12`: the XC50 was found to be 480 nM. Molecule `N=C(N)Nc1nc(-c2cccc(NC(=O)NCC(c3ccccc3)c3ccccc3)c2)cs1` returned an XC50 of 791 nM.

Regarding `COc1ccc(-c2cccc(NC(=O)c3cccc(Cl)c3)c2)cc1CNC(C)C`, the XC50 is 721 nM.

`O=C(NC1CCN(CC2(c3ccc(Cl)cc3)CCC2)CC1)c1cc[nH]n1` showed an XC50 of 421 nM. Molecule `COc1ccc(CN2CCC(CN3CC4(OC3=O)c3ccccc3-c3ccccc34)C2)c(O)c1` (stereo unspecified) registered an XC50 of 613 nM. In the case of `CNS(=O)(=O)CCNCc1ccc(-c2ccc3ncnc(Nc4ccc(OCc5ccccc5)cc4)c3c2)o1`, the XC50 was found to be 729 nM. Molecule `NC1CCN(CCNCc2cccc(-c3ccc(-c4nc5cc(F)ccc5[nH]4)cc3)c2)C1` (stereo unspecified) yielded an XC50 of 734 nM. The same measure for `COc1ccc(Nc2nc(C)cc(NC3CCCC3)n2)cc1`: 872 nM; for `NC(=O)C1CCN(Cc2cccc(-c3cccc(-c4nc5cc(C(F)(F)F)ccc5[nH]4)c3)c2)CC1`: 641 nM; for `COc1ccccc1-n1c(SCC(=O)c2ccc3c(c2)CC(=O)N3C)nnc1-c1cccs1`: 963 nM.

`CC(=O)Nc1ccc(C(=O)Nc2cccc(-c3ccc(-c4nc5cccc(C)c5[nH]4)cc3)c2)cn1` returned an XC50 of 191 nM. Turning to `Cc1cc(NC(=O)Nc2cccc(C#N)c2)c2ccccc2n1`, the XC50 stood at 581 nM.

`O=C(Nc1cccc(-c2ccc(-c3nc4ccccc4[nH]3)cc2)c1)Nc1ccc(F)c(F)c1F` showed an XC50 of 238 nM. On to `O=C(/C=C/c1ccc(Cl)c(Cl)c1)NCCCCCN1CCC(NC(=O)Nc2ccc(Oc3ccccc3)cc2)C1` (stereo unspecified), for which the XC50 was determined as 594 nM. For the molecule `CC(=O)Oc1cc(C)ccc1C1CCN(CCCCNC(=O)c2ccc(-c3ccc(C(F)(F)F)cc3)cc2)CC1`, the XC50 is 646 nM. `CC(=O)Nc1ccc(CN2CCC(NC(=O)c3cc(-c4ccc(N(C)C)cc4)cs3)C2)cc1` (stereo unspecified) returned an XC50 of 1170 nM. Molecule `CC(C)(CNC(=O)[C@H]1CCCN1)c1nc(-c2ccc(Cl)c(O)c2)c(-c2ccncc2)[nH]1` yielded an XC50 of 1270 nM.

`O=C(O[C@H]1CN[C@H](C#Cc2cc3ncnc(Nc4ccc5c(ccn5S(=O)(=O)c5cccs5)c4)c3s2)C1)N1CCOCC1` registered an XC50 of 1100 nM. Turning to `CCOc1ccc2nc3cc(NC(=O)c4ccco4)ccc3c(N)c2c1`, the XC50 came to 802 nM.

As for `COC(=O)c1cccc(CNCc2cccc(-c3cccc(-c4nc5ccccc5[nH]4)c3)c2)c1`, the XC50 was 504 nM. With `COC(=O)C(C)(C)c1ccc(CC(C)NCC(O)c2cccc(C(F)(F)F)c2)cc1` (stereo unspecified) the figure was 837 nM; with `CC(C)Oc1ccccc1-c1csc(C(=O)NCC2CCN(Cc3ccc(C(C)(C)C)cc3)C2)c1` (stereo unspecified), 1070 nM; with `Cc1cc(N2CCCC2)nc(Nc2ccc(NC(=O)C(C)(C)C)cc2)n1`, 1070 nM. The molecule `NCC1CCCN1Cc1ccc(-c2ccc(-c3nc4cc(C(F)(F)F)ccc4[nH]3)cc2)cc1` (stereo unspecified) returned an XC50 of 959 nM. The molecule `O=C1CCCN1CCCNCc1ccc(-c2ccc(-c3nc4cc(F)ccc4[nH]3)cc2)cc1` had an XC50 of 603 nM. Regarding `Oc1ccc(CCNc2nc(NCCCOc3cc(CN4CCCCC4)ccc3F)nc(N3CCNCC3)n2)cc1`, the XC50 is 1760 nM.

As to `CCN1C(c2ccc(Cl)cc2)C(CNCc2ccccc2O)CC1(C)CO` (stereo unspecified), the XC50 was determined as 311 nM. On to `Cc1cc(NC(=O)CCN2CCN(c3cccc(Cl)c3Cl)CC2)ccc1N1CCN(C(C)C)CC1`, for which the XC50 was 847 nM. For the molecule `O=S(=O)(c1ccc2ccccc2c1)N1CCCN(Cc2ccc(OCCCN3CCCCC3)cc2)CC1`, the XC50 came to 1100 nM. Molecule `CC(=O)c1c[nH]c2ccc(/C=C/C(=O)NC3CCC(CCN4CCc5ccc(C#N)cc5CC4)CC3)cc12` (stereo unspecified) came in with an XC50 of 496 nM. Regarding `COc1ccc2nccc([C@@H](O)CN3CCC(NC(=O)COc4nc(SCc5ccc(F)cc5)nc5c4CCC5)CC3)c2c1`, the XC50 came out at 595 nM. Take `Cn1nccc1C(=O)NCCNCc1ccc(-c2cccc(-c3nc4ccccc4[nH]3)c2)cc1`: the XC50 worked out at 137 nM. As for `CCN(CCN(C)C)Cc1ccc(-c2ccc(NS(=O)(=O)c3cccc4cccnc34)cc2)cc1`, the XC50 came to 931 nM. With `CN(C)c1cc(NN=Cc2cc(Cl)ccc2O)nc(N(C)C)n1` the figure was 703 nM. In turn, `Cc1cc(N[C@@H](Cc2ccccc2)C(=O)NCc2cccc(F)c2)nc(NCCc2cccs2)n1` showed an XC50 of 622 nM. As for `COc1ccc2ncc(F)c(CCN3CC[C@@H](CNCc4ccc5c(c4C)OCCO5)C3)c2n1`, the XC50 turned out to be 1030 nM. Molecule `COC(=O)c1cccc(CNCc2ccc(-c3cccc(-c4nc5cccc(C)c5[nH]4)c3)cc2)c1` came in with an XC50 of 306 nM. In turn, `O=C(Nc1cccc(-c2ccc(-c3nc4cc(C(F)(F)F)ccc4[nH]3)s2)c1)c1cccnc1` came in with an XC50 of 363 nM.

Molecule `O=C(/C=C/c1ccc(Cl)cc1)NCCCCCN1CCCC(C(=O)Nc2ccc(Cl)c(Cl)c2)C1` (stereo unspecified) had an XC50 of 833 nM. Turning to `Cc1cc(-c2cccc(CNC3CCCC3)c2)ccc1S(=O)(=O)NCCN1CCCC1`, the XC50 was 1240 nM.

Molecule `NC1=NC2(CCCCC2)N(OCCCCCCCCNc2nc(N)nc(N)n2)C(N)=N1` showed an XC50 of 59.8 nM. Regarding `CC1(C)NC(N)=NC(=N)N1OCCCOc1ccc([N+](=O)[O-])cc1`, the XC50 stood at 3.2 nM. In turn, `CCCCCCN1CCC(NCc2ccc(Cl)cc2)CC1` returned an XC50 of 854 nM. Molecule `CC1CC(C)CN(CC(O)CNC(=O)Nc2ccc(Br)cc2)C1` (stereo unspecified) showed an XC50 of 1050 nM. `COc1cccc(Nc2nc(C)cc(NCc3ccc(-c4c(C)noc4C)cc3)n2)c1` yielded an XC50 of 880 nM. The same measure for `CN(C(=O)Nc1ccc(F)cc1)C1CCN(CCCCCNC(=O)/C=C/c2ccc(Cl)c(Cl)c2)CC1`: 886 nM; for `CC(C)(C)NS(=O)(=O)c1cc(C(=O)N2CCC(CCN3CCC(C(=O)c4ccc(F)cc4)CC3)(c3cccc(F)c3)CC2)c(Cl)cc1F`: 746 nM. The molecule `O=C(Nc1nc2ccc(Cl)cc2s1)c1csnn1` gave an XC50 of 786 nM.

`CCOC(C(=O)OCC1CCCN(C)C1)(c1ccccc1)c1ccccc1` (stereo unspecified) registered an XC50 of 868 nM.

Molecule `CN(C)c1ccc(-c2csc(C(=O)NC3CCCCN(Cc4ccc(C(C)(C)C)cc4)C3)c2)cc1` (stereo unspecified) yielded an XC50 of 1110 nM. The same measure for `CCOc1ccc(S(=O)(=O)N(C)c2ccc(OCC(=O)Nc3nccs3)cc2)cc1`: 961 nM.

Take `COc1ccc2c(c1)S(=O)(=O)N=C(N1CCCC1c1ccc(Cl)c(Cl)c1)N2C` (stereo unspecified): the XC50 amounted to 1280 nM. The molecule `Cc1cccc2nc(-c3ccc(-c4cccc(NC(=O)C(C)CN(C)C)c4)cc3)[nH]c12` (stereo unspecified) yielded an XC50 of 652 nM. Take `COc1cc(Nc2nccc(Nc3ccc4c(C)n[nH]c4c3)n2)cc2ccccc12`: the XC50 was 699 nM. Take `CCCCC(=O)Nc1nc2ccc([N+](=O)[O-])cc2s1`: the XC50 was found to be 756 nM. With `Fc1ccc2[nH]c(-c3cccc(-c4cccc(CNCC5CCCO5)c4)c3)nc2c1` (stereo unspecified), the XC50 amounted to 513 nM. With `CCOC(=O)N/N=C/[C@H](CCc1ccccc1)NC(=O)[C@H](CC(C)C)NC(=O)c1cc2cccc(OC)c2o1` the figure was 880 nM; with `C=CCc1cc(C)ccc1OCCCON1C(N)=NC(N)=NC1(C)C`, 3.2 nM; with `CC(C)NCc1cccc(-c2cccc(-c3nc4ccccc4[nH]3)c2)c1`, 799 nM. With `c1ccc(CCNCc2ccc(-c3cccc(CNc4ccc5ncccc5c4)c3)cc2)cc1` the figure was 926 nM; with `CN1CCN(CCCSc2ccc3c(c2)ncn3-c2cc(OCc3ccccc3C(F)(F)F)c(C(N)=O)s2)CC1`, 439 nM; with `CC(C)COc1ccc(Cl)cc1Cc1ccc(-c2nc3cnc4ccccc4c3[nH]2)o1`, 1260 nM. As to `COc1ccc(C=Cc2cc(=N)c3ccccc3[nH]2)cc1`, the XC50 turned out to be 969 nM. As to `Cc1cc2nc(-c3ccc(/C=C/C(=O)NCc4ccc(Cl)c(Cl)c4)cc3)[nH]c2cc1C`, the XC50 came to 824 nM. Turning to `COc1cc2nc(NCCc3cccc(Cl)c3)nc(NCc3ccccc3)c2cc1OC`, the XC50 stood at 124 nM.

Molecule `COc1ccccc1CCNc1nc(C)cc(N[C@@H](CC(C)C)C(=O)NCc2cccc(F)c2)n1` gave an XC50 of 973 nM. For the molecule `CC(=O)Nc1nc(C(=O)Nc2ccc(-c3cccc(-c4nc5cc(C(F)(F)F)ccc5[nH]4)c3)cc2)cs1`, the XC50 is 184 nM. With `COc1ccc2nccc([C@@H](O)CN3CCC(NCc4cn5cc(F)ccc5n4)CC3)c2c1` the figure was 784 nM. With `CCCCNC(=N)c1ccc(OCCCCCOc2ccc(C(=N)NCCCC)cc2)cc1` the figure was 114 nM. The same measure for `COc1cccc(-c2csc(C(=O)NCC3CCN(Cc4ccc(C(C)C)cc4)C3)c2)c1` (stereo unspecified): 1390 nM. `Cc1cccc2nc(-c3cccc(-c4cccc(CNCc5cnn(-c6ccccc6)n5)c4)c3)[nH]c12` displayed an XC50 of 663 nM.

With `COc1ccc(CNCCc2cccs2)cc1-c1cccc(S(=O)(=O)NCCN2CCCC2)c1`, the XC50 came to 877 nM.

As for `COc1ccc(NC(=O)[C@H](CC(C)C)Nc2cc(C)nc(NCC3CCCCC3)n2)cc1`, the XC50 turned out to be 1100 nM.

For the molecule `COc1cc(C)nc2ccc(NC(=O)Nc3ccc4nc(C)cc(OC)c4c3)cc12`, the XC50 came to 548 nM. Take `CCCN1CCN(CC(O)CNC(=O)Nc2ccc(Br)cc2)CC1` (stereo unspecified): the XC50 was found to be 63 nM. With `Cc1ccc(O)cc1Nc1ccnc2cc(-c3cccc(CNCCS(C)(=O)=O)c3)ccc12` the figure was 836 nM; with `CN(C)CCNc1ncnc2c1[nH]c1ccc(Cl)cc12`, 601 nM. With `CCC1CN(S(=O)(=O)c2ccc3c(c2)NC(=O)CC(=O)N3)c2cc(Cl)ccc2O1` (stereo unspecified) the figure was 656 nM; with `O=C(CCc1c[nH]cn1)Nc1cccc(-c2cccc(-c3nc4ccccc4[nH]3)c2)c1`, 660 nM.

The values above are taken from ChEMBL document CHEMBL1157539, “Thousands of chemical starting points for antimalarial lead identification” (Nature, 2010).
